In PubChem BioAssay AID1117328 (Cheminformatics & Chemogenomics Research Group (CCRG), …, 2015):
Active and inactive are the calls of the source. How the calls were made is not given here.

Target: Ribosomal protein S6 kinase beta-1 (Homo sapiens) (UniProt P23443)
Test: p70S6K1 kinase inhibitors, biochemical, LANCE Ultra TR-FRET (AID 1117328)
Conditions: LANCE Ultra TR-FRET kinase assay, at 20 µM (top of the series)

Sequence of Ribosomal protein S6 kinase beta-1 (Homo sapiens) (P23443 whole entry, looked up): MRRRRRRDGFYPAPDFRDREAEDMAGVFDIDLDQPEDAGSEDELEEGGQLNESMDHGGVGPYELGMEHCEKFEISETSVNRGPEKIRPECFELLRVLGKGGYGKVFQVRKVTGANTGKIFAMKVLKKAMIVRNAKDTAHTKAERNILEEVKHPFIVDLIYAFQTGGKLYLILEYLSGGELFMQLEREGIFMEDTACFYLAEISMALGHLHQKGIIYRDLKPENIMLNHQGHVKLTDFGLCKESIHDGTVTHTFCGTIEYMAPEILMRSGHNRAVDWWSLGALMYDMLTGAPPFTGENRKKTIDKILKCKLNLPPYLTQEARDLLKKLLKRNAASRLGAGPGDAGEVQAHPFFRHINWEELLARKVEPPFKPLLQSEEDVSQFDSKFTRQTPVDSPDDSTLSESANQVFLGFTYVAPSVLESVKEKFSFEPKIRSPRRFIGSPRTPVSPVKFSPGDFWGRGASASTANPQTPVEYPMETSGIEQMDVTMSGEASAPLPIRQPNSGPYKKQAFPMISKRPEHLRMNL

Row | inhibition | Structure (SMILES)
1 | 65.3% | C[n+]1c2cc(N)ccc2cc2ccc(N)cc21 (tested in a mixture with another compound)
2 | 28.5% (inactive) | COc1cc2nc(N3CCN(C(=O)c4ccco4)CC3)nc(N)c2cc1OC
3 | 48.6% (inactive) | CN1CC[C@H](c2c(O)cc(O)c3c(=O)cc(-c4ccccc4Cl)oc23)[C@H](O)C1
4 | -128% (inactive) | CC(=O)[C@]1(O)Cc2c(O)c3c(c(O)c2[C@@H](O[C@H]2C[C@H](N)[C@H](O)[C@H](C)O2)C1)C(=O)c1ccccc1C3=O
5 | -2.55% (inactive) | COc1cc2c(c(OC)c1OC)-c1ccc(OC)c(=O)cc1[C@@H](NC(C)=O)CC2
6 | -1.64% (inactive) | O=C(NOCC1CC1)c1ccc(F)c(F)c1Nc1ccc(I)cc1Cl
7 | -1.96% (inactive) | CC(=O)Oc1ccc(C2(c3ccc(OC(C)=O)cc3)Oc3ccccc3NC2=O)cc1
8 | 1.86% (inactive) | COCc1c(C(C)C)nc(C(C)C)c(/C=C/[C@@H](O)C[C@@H](O)CC(=O)O)c1-c1ccc(F)cc1
9 | 4.26% (inactive) | O=C(CCCCCCC(=O)Nc1ccccc1)NO
10 | 21.1% | O=C1c2c(O)ccc(O)c2C(=O)c2c(NCCNCCO)ccc(NCCNCCO)c21
11 | -2.02% (inactive) | CC[C@@]1(O)C(=O)OCc2c1cc1n(c2=O)Cc2c-1nc1ccccc1c2/C=N/OC(C)(C)C
12 | -6.04% (inactive) | O=c1[nH]c(=O)n([C@H]2C[C@H](O)[C@@H](CO)O2)cc1F
13 | -0.94% (inactive) | CC(C)(C)C(=O)OCOP(=O)(COCCn1cnc2c(N)ncnc21)OCOC(=O)C(C)(C)C
14 | 3.96% (inactive) | CCCCCCCCCCCCCC[N+](C)(C)C
15 | 0.21% (inactive) | O=C(O)c1ccc(-n2nc(-c3ccccc3O)nc2-c2ccccc2O)cc1
16 | -18.7% (inactive) | COC(=O)Nc1nc2ccc(C(=O)c3ccccc3)cc2[nH]1
17 | -7.01% (inactive) | Cc1cc2c(C(C)C)c(O)c(O)c(C=O)c2c(O)c1-c1c(C)cc2c(C(C)C)c(O)c(O)c(C=O)c2c1O
18 | 1.27% (inactive) | Oc1c(I)cc(I)c2cccnc12
19 | 3.71% (inactive) | COc1cc(-c2ccc(=O)[nH]n2)ccc1OC(F)F
20 | 7.41% (inactive) | CCN(CC)CCOc1ccc(/C(=C(\Cl)c2ccccc2)c2ccccc2)cc1
21 | 29% (inactive) | COc1ccc(-c2ccc3cc(C(=O)O)ccc3c2)cc1C12CC3CC(CC(C3)C1)C2

Row | inhibition | Structure (SMILES)
22 | -9.45% (inactive) | CCC(C)n1ncn(-c2ccc(N3CCN(c4ccc(OC[C@H]5CO[C@](Cn6cncn6)(c6ccc(Cl)cc6Cl)O5)cc4)CC3)cc2)c1=O (some centres not stated)
23 | 7.92% (inactive) | COC(=O)[C@H]1[C@H]2C[C@@H]3c4[nH]c5cc(OC)ccc5c4CCN3C[C@H]2C[C@@H](OC(=O)/C=C/c2ccc(O)c(OC)c2)[C@@H]1OC
24 | 3.8% (inactive) | COc1cc([C@@H]2c3cc4c(cc3[C@H](O)[C@H]3COC(=O)[C@H]23)OCO4)cc(OC)c1OC
25 | -1.98% (inactive) | CC(C)C[C@H](NC(=O)[C@H](CCc1ccccc1)NC(=O)CN1CCOCC1)C(=O)N[C@@H](Cc1ccccc1)C(=O)N[C@@H](CC(C)C)C(=O)[C@@]1(C)CO1
26 | 37.6% (inactive) | O=[N+]([O-])c1ccc(O)c2ncccc12
27 | -10.6% (inactive) | [O-][n+]1ccccc1SSc1cccc[n+]1[O-]
28 | -23.9% (inactive) | COC(=O)Nc1nc2ccc(C(=O)c3cccs3)cc2[nH]1
29 | 45.3% (inactive) | Cc1cc(C)c(/C=C2\C(=O)Nc3ccccc32)[nH]1
30 | 12.5% (inactive) | Cc1cc(=O)c2c(O)c3c(O)cc(=O)c4c3c3c(cc(O)c1c23)C(C)(C)C=4O
31 | 3.34% (inactive) | Nc1nc(=S)c2[nH]cnc2[nH]1
32 | 22.2% (inactive) | S=c1nc[nH]c2nc[nH]c12
33 | -0.47% (inactive) | CCCN(CCC)C(=O)C(CCC(=O)OCCCN1CCN(CCOC(=O)Cc2c(C)n(C(=O)c3ccc(Cl)cc3)c3ccc(OC)cc23)CC1)NC(=O)c1ccccc1 (configuration not stated)
34 | -5.93% (inactive) | COC(=O)Nc1nc2ccc(Sc3ccccc3)cc2[nH]1
35 | -2.09% (inactive) | CC(C)(C)C1CCC(CC2=C(O)c3ccccc3C(=O)C2=O)CC1 (configuration not stated)
36 | 1.07% (inactive) | COC(=O)c1nc(Cl)c(Cl)nc1N
37 | 6.51% (inactive) | CSc1ccc2c(c1)C(N1CCN(C)CC1)Cc1ccccc1S2 (configuration not stated)
38 | -0.72% (inactive) | Cn1cnc([N+](=O)[O-])c1Sc1ncnc2nc[nH]c12
39 | 91.7% | CCN(CC)CCNC(=O)c1c(C)[nH]c(/C=C2\C(=O)Nc3ccc(F)cc32)c1C
40 | 5.42% (inactive) | CC[C@]1(O)C[C@H]2CN(CCc3c([nH]c4ccccc34)[C@@](C(=O)OC)(c3cc4c(cc3OC)N(C=O)[C@H]3[C@@](O)(C(=O)OC)[C@H](OC(C)=O)[C@]5(CC)C=CCN6CC[C@]43[C@@H]65)C2)C1
41 | 6.59% (inactive) | CC(C)C[C@H](NC(=O)[C@H](Cc1ccccc1)NC(=O)c1cnccn1)B(O)O
42 | 5.11% (inactive) | O=c1c(-c2ccccc2)c1-c1ccccc1
